# Measurements from article PMC7489219 (Molecular Brain, 2020).
# Where a name gives a salt, the structure may show the parent alone.
# Test system: T1, primary mouse cortical neurons
# T1 construct: primary cortical neurons, DIV 10
# Assay: cells
# Design: Protection from NMDA-induced (30 uM, 10 min) neuronal death; Hoechst nuclear morphology by automated microscopy
# Conditions: Cortical neurone, 20 h, read-out: % inhibition, inhibition of NMDA-induced cell death (protection score), 30 min pre-treatment
# How it was run: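 On DIV 10, primary mouse cortical neurons were given compound at 10 μM for 30 min at 37 °C, then 30 μM NMDA for 10 min, washed, and kept 20 h with compound. Dead cells were scored by nuclear morphology, and % protection was derived from survival relative to vehicle + NMDA and untreated controls.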
row,Compound,inhibition at 10 µM
1,COc1ccc(C(C)=O)c(O)c1 [Paeonol (Peonol)],-2.06%
2,Cc1nc2n(c(=O)c1CCN1CCC(c3noc4cc(F)ccc34)CC1)CCCC2O (stereo not drawn) [Paliperidone (Invega)],-1.54%
3,COc1cc2c(cc1OC)-c1cc3ccc(OC)c(OC)c3c[n+]1CC2 [Palmatine chloride],8.5%
4,CC(=O)O[C@H]1C[C@@H]2CC[C@@H]3[C@H](CC[C@@]4(C)[C@H]3C[C@H]([N+]3(C)CCCCC3)[C@@H]4OC(C)=O)[C@@]2(C)C[C@@H]1[N+]1(C)CCCCC1 [Pancuronium (Pavulon)],7.54%
5,C=C1C(=O)O[C@H]2[C@H]1CC/C(C)=C/CC[C@@]1(C)O[C@@H]21 [Parthenolide ((-)-Parthenolide)],-3.83%
6,Cc1ccc(Nc2nccc(N(C)c3ccc4c(C)n(C)nc4c3)n2)cc1S(N)(=O)=O [Pazopanib HCl],-2.36%
7,Nc1nc2[nH]cc(CCc3ccc(C(=O)N[C@@H](CCC(=O)O)C(=O)O)cc3)c2c(=O)[nH]1 [Pemetrexed],0.519%
8,CCC[C@H](N[C@@H](C)C(=O)N1[C@H](C(=O)O)C[C@@H]2CCCC[C@@H]21)C(=O)OCC [Perindopril Erbumine (Aceon)],-1.31%
9,"CCCCC1C(=O)N(c2ccccc2)N(c2ccccc2)C1=O [Phenylbutazone (Butazolidin, Butatron)]",47.4%
10,O=C1NC(=O)C(c2ccccc2)(c2ccccc2)N1 [Phenytoin (Lepitoin)],21.2%
11,O=C1N=C(O)NC1(c1ccccc1)c1ccccc1 [Phenytoin sodium (Dilantin)],3.12%
12,O=C(CCc1ccc(O)cc1)c1c(O)cc(O)cc1O [Phloretin (Dihydronaringenin)],-1.62%
13,O=C(CCc1ccc(O)cc1)c1c(O)cc(O)cc1O[C@@H]1O[C@H](CO)[C@@H](O)[C@H](O)[C@H]1O [Phlorizin (Phloridzin)],-2.89%
14,COc1ccc(-c2nc3cc(C4=NNC(=O)CC4C)ccc3[nH]2)cc1 (stereo not drawn) [Pimobendan (Vetmedin)],-0.217%
15,O=C(/C=C/C=C/c1ccc2c(c1)OCO2)N1CCCCC1 [Piperine (1-Piperoylpiperidine)],-1.51%
16,CN1C(C(=O)Nc2ccccn2)=C(O)c2ccccc2S1(=O)=O [Piroxicam (Feldene)],4.8%
17,O=C(O)C[C@H](O)C[C@H](O)/C=C/c1c(C2CC2)nc2ccccc2c1-c1ccc(F)cc1 [Pitavastatin calcium (Livalo)],17.7%
18,OC[C@H]1O[C@@H](Oc2cc(O)cc(C=Cc3ccc(O)cc3)c2)[C@H](O)[C@@H](O)[C@@H]1O [Polydatin (Piceid)],1.2%
19,CC[C@@H]([C@H](C)O)n1ncn(-c2ccc(N3CCN(c4ccc(OC[C@@H]5CO[C@@](Cn6cncn6)(c6ccc(F)cc6F)C5)cc4)CC3)cc2)c1=O [Posaconazole],-12.5%
20,CCCN[C@H]1CCc2nc(N)sc2C1 [Pramipexole dihydrochloride monohydrate],-0.655%
21,CC(=O)Oc1cc2c(s1)CCN(C(C(=O)C1CC1)c1ccccc1F)C2 (stereo not drawn) [Prasugrel (Effient)],-7.75%

row,Compound,inhibition at 10 µM
1,C[C@]12C=CC(=O)C=C1CC[C@@H]1[C@@H]2[C@@H](O)C[C@@]2(C)[C@H]1CC[C@]2(O)C(=O)CO [Prednisolone (Hydroretrocortine)],4.33%
2,CC(=O)OCC(=O)[C@@]1(O)CC[C@H]2[C@@H]3CCC4=CC(=O)C=C[C@]4(C)[C@H]3[C@@H](O)C[C@@]21C [Prednisolone acetate (Omnipred)],-1.13%
3,C[C@]12C=CC(=O)C=C1CC[C@@H]1[C@@H]2C(=O)C[C@@]2(C)[C@H]1CC[C@]2(O)C(=O)CO [Prednisone (Adasone)],28.4%
4,CCCNC(C)C(=O)Nc1ccccc1C (stereo not drawn) [Prilocaine],7.71%
5,CCC1(c2ccccc2)C(=O)NCNC1=O [Primidone (Mysoline)],27.9%
6,CC(=O)[C@H]1CC[C@H]2[C@@H]3CCC4=CC(=O)CC[C@]4(C)[C@H]3CC[C@]12C [Progesterone (Prometrium)],7.11%
7,O=c1c(-c2ccc(O)cc2)coc2c([C@@H]3O[C@H](CO)[C@@H](O)[C@H](O)[C@H]3O)c(O)ccc12 [Puerarin (Kakonein)],-3.03%
8,NC(=O)c1cnccn1 [Pyrazinamide (Pyrazinoic acid amide)],15.2%
9,CN(C)C(=O)Oc1ccc[n+](C)c1 [Pyridostigmine Bromide (Mestinon)],35.3%
10,CCc1nc(N)nc(N)c1-c1ccc(Cl)cc1 [Pyrimethamine],-0.769%
11,OCCOCCN1CCN(C2=Nc3ccccc3Sc3ccccc32)CC1 [Quetiapine fumarate (Seroquel)],0.552%
12,C=C[C@H]1CN2CC[C@H]1C[C@H]2[C@H](O)c1ccnc2ccc(OC)cc12 [Quinine hydrochloride dihydrate],-0.947%
13,CC(=O)SCC(Cc1ccccc1)C(=O)NCC(=O)OCc1ccccc1 (stereo not drawn) [Racecadotril (Acetorphan)],-7.37%
14,Cc1nnc(C(=O)NC(C)(C)c2nc(C(=O)NCc3ccc(F)cc3)c(O)c(=O)n2C)o1 [Raltegravir (MK-0518)],8.86%
15,CCC(=O)NCC[C@@H]1CCc2ccc3c(c21)CCO3 [Ramelteon (TAK-375)],-3.3%
16,CCOC(=O)[C@H](CCc1ccccc1)N[C@@H](C)C(=O)N1[C@H](C(=O)O)C[C@@H]2CCC[C@@H]21 [Ramipril (Altace)],-0.755%
17,CN/C(=C\[N+](=O)[O-])NCCSCc1ccc(CN(C)C)o1 [Ranitidine (Zantac)],1.37%
18,CO[C@H]1C[C@@H]2CC[C@@H](C)[C@@](O)(O2)C(=O)C(=O)N2CCCC[C@H]2C(=O)O[C@H]([C@H](C)C[C@@H]2CC[C@@H](O)[C@H](OC)C2)CC(=O)[C@H](C)/C=C(\C)[C@@H](O)[C@@H](OC)C(=O)[C@H](C)C[C@H](C)/C=C/C=C/C=C/1C [Rapamycin (Sirolimus)],-1.51%
19,CCOc1cc(CC(=O)N[C@@H](CC(C)C)c2ccccc2N2CCCCC2)ccc1C(=O)O [Repaglinide],-4.69%
20,COC(=O)[C@H]1[C@H]2C[C@@H]3c4[nH]c5cc(OC)ccc5c4CCN3C[C@H]2C[C@@H](OC(=O)c2cc(OC)c(OC)c(OC)c2)[C@@H]1OC [Reserpine],24%
21,Oc1ccc(/C=C/c2cc(O)cc(O)c2)cc1 [Resveratrol],22.8%

row,Compound,inhibition at 10 µM
1,O=C(O)c1cc(O)c2c(c1)C(=O)c1cccc(O)c1C2=O [Rhein (Monorhein)],5.39%
2,COc1cc(O)c2c(c1)C(=O)c1cc(C)cc(O)c1C2=O [Rheochrysidin (Physcione)],18.7%
3,NC(=O)c1ncn([C@@H]2O[C@H](CO)[C@@H](O)[C@H]2O)n1 [Ribavirin (Copegus)],12.3%
4,Cc1cc2nc3c(=O)[nH]c(=O)nc-3n(C[C@H](O)[C@H](O)[C@H](O)CO)c2cc1C [Riboflavin (Vitamin B2)],1.7%
5,CO[C@H]1/C=C/O[C@@]2(C)Oc3c(C)c(O)c4c(O)c(c5c(c4c3C2=O)=NC2(CCN(CC(C)C)CC2)N=5)NC(=O)/C(C)=C\C=C\[C@H](C)[C@H](O)[C@@H](C)[C@@H](O)[C@@H](C)[C@H](OC(C)=O)[C@@H]1C [Rifabutin (Mycobutin)],-2.35%
6,CO[C@H]1/C=C/O[C@@]2(C)Oc3c(C)c(O)c4c(O)c(c(/C=N/N5CCN(C6CCCC6)CC5)c(O)c4c3C2=O)NC(=O)/C(C)=C\C=C\[C@H](C)[C@H](O)[C@@H](C)[C@@H](O)[C@@H](C)[C@H](OC(C)=O)[C@@H]1C [Rifapentine (Priftin)],9.26%
7,CO[C@H]1/C=C/O[C@@]2(C)Oc3c(C)c(O)c4c(O)c(c5c(nc6cc(C)ccn65)c4c3C2=O)NC(=O)/C(C)=C\C=C\[C@H](C)[C@H](O)[C@@H](C)[C@@H](O)[C@@H](C)[C@H](OC(C)=O)[C@@H]1C [Rifaximin (Xifaxan)],1.93%
8,Nc1nc2ccc(OC(F)(F)F)cc2s1 [Riluzole (Rilutek)],40.9%
9,O=P(O)(O)C(O)(Cc1cccnc1)P(=O)(O)O [Risedronate sodium],4.5%
10,Cc1nc2n(c(=O)c1CCN1CCC(c3noc4cc(F)ccc34)CC1)CCCC2 [Risperidone (Risperdal)],23.7%
11,CC(C)c1nc(CN(C)C(=O)N[C@H](C(=O)N[C@@H](Cc2ccccc2)C[C@H](O)[C@H](Cc2ccccc2)NC(=O)OCc2cncs2)C(C)C)cs1 [Ritonavir],-1.84%
12,CN(C)CCc1c[nH]c2ccc(Cn3cncn3)cc12 [Rizatriptan Benzoate (Maxalt)],14.3%
13,C=CC[N+]1([C@H]2C[C@H]3[C@@H]4CC[C@H]5C[C@H](O)[C@@H](N6CCOCC6)C[C@]5(C)[C@H]4CC[C@]3(C)[C@H]2OC(C)=O)CCCC1 [Rocuronium bromide],-0.727%
14,COc1cc2c(cc1OC)[C@@H]1Cc3ccc(OC)c(OC)c3CN1CC2 [Rotundine],-0.337%
15,NC(=O)c1cn(Cc2c(F)cccc2F)nn1 [Rufinamide (Banzel)],-3.11%
16,O=c1c2ccccc2nc2n1CCc1c-2[nH]c2ccccc12 [Rutaecarpine (Rutecarpine)],5.35%
17,C[C@@H]1O[C@@H](OC[C@H]2O[C@@H](Oc3c(-c4ccc(O)c(O)c4)oc4cc(O)cc(O)c4c3=O)[C@H](O)[C@@H](O)[C@@H]2O)[C@H](O)[C@H](O)[C@H]1O [Rutin (Rutoside)],-3.76%
18,COc1ccc([C@H]2CNC(=O)C2)cc1OC1CCCC1 [S-(+)-Rolipram],-1.23%
19,CC(C)(C)NCC(O)c1ccc(O)c(CO)c1 (stereo not drawn) [Salbutamol sulfate (Albuterol)],-7.52%
20,"OCc1ccccc1O[C@@H]1O[C@H](CO)[C@@H](O)[C@H](O)[C@H]1O [Salicin (Salicoside, Salicine)]",-2.7%
21,OC[C@H]1O[C@@H](OCCc2ccc(O)cc2)[C@H](O)[C@@H](O)[C@@H]1O [Salidroside (Rhodioloside)],11.2%
